Results reported in patent US20240270762A1, “PENICILLIN-BINDING PROTEIN INHIBITORS” (priority 2021, published 2024).
In brackets after ≈: the same amount, converted by molar mass.

Key:
[1] = tested on: P. aeruginosa (ΔmexAB-oprM); assay: Broth microdilution MIC in CAMHB; assay type: cell-based; details: Pseudomonas aeruginosa; read-out: MIC P. aeruginosa ΔmexAB-oprM
[2] = biological target: T1, PBP3 from Pseudomonas aeruginosa (PAO1) (Pseudomonas aeruginosa, UniProt G3XD46); assay: Bocillin-FL fluorescence polarization competition binding, P. aeruginosa PBP3; details: Binding affinity to P. aeruginosa PBP3; fluorescence polarization competition binding assay using Bocillin-FL; read-out: P. aeruginosa PBP3 Potency
T1 construct: made in house
T1 sequence (G3XD46 whole entry): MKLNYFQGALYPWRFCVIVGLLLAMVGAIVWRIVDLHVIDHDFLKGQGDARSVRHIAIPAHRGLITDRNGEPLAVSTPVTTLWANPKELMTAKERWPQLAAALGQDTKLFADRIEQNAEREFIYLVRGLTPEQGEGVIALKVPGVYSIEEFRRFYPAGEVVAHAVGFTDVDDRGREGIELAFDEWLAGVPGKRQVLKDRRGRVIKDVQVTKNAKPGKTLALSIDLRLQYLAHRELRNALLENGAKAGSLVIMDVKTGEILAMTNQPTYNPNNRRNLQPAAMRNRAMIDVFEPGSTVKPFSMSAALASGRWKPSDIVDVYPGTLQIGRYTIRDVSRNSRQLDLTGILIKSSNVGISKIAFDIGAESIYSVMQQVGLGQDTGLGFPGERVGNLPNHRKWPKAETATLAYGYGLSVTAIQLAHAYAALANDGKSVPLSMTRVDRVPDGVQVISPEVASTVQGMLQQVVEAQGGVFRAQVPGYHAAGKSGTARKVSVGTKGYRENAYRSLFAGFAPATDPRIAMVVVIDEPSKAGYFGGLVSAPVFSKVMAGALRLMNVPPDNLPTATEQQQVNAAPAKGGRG
Procedure, shortened: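 Purified PBPs pre-incubated with inhibitor (E. coli PBP3 1.5 μM, 30 min; P. aeruginosa PBP3 0.75 μM, A. baumannii PBP1a 1 μM and PBP3 0.2 μM, 15 min), then Bocillin-FL 0.1 μM (0.05 μM for PBP1a) added; FP read up to 60 min. EC50 = concentration halving bound Bocillin-FL.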

E. coli ATCC 25922 = assay: microbe, parasite or virus in culture; assay type: cell-based; details: Escherichia coli, ATCC25922, read-out: MIC E. coli 25922
K. pneumoniae SI-117 = assay: microbe, parasite or virus in culture; assay type: cell-based; details: Klebsiella pneumoniae, SI117, read-out: MIC K. pneumoniae SI-117

| Compound | MIC [1] [µg/mL] | IC50 [2] [µM] | MIC (E. coli ATCC 25922) [µg/mL] | MIC (K. pneumoniae SI-117) [µg/mL] |
| --- | --- | --- | --- | --- |
| Nc1nc(C(=O)N[C@@H](C(=O)N[C@H]2Cc3cccc(C(=O)O)c3OB2O)c2ccc(P(=O)(O)O)cc2)cs1 (racemic) [Example 51, (R)-3-((S)-2-(2-aminothiazole-4-carboxamido)-2-(4-phosphonophenyl)acetamido)-2-hydroxy-3,4-dihydro-2H-benzo[e][1,2]oxaborinine-8-carboxylic acid and (R)-3-((R)-2-(2-aminothiazole-4-carboxamido)-2-(4-phosphonophenyl)acetamido)-2-hydroxy-3,4-dihydro-2H-benzo[e][1,2]oxaborinine-8-carboxylic acid] | 32 to 64 (≈ 58.6 to 117 µM) | < 10 | > 128 | > 128 |
| CC(C)C(=O)NC(C(=O)N[C@H]1Cc2cccc(C(=O)O)c2OB1O)c1ccc(P(=O)(O)O)cc1 (stereo partly drawn) [Example 28, (3R)-2-hydroxy-3-(2-isobutyramido-2-(4-phosphonophenyl)acetamido)-3,4-dihydro-2H-benzo[e][1,2]oxaborinine-8-carboxylic acid] | > 128 | 10 to 50 | > 128 | > 128 |
| O=C(O)c1cccc2c1OB(O)[C@@H](NC(=O)[C@@H](NC(=O)N1CCNC1=O)c1ccc(P(=O)(O)O)cc1)C2 [Example 39, (R)-2-hydroxy-3-((S)-2-(2-oxoimidazolidine-1-carboxamido)-2-(4-phosphonophenyl)acetamido)-3,4-dihydro-2H-benzo[e][1,2]oxaborinine-8-carboxylic acid] | > 128 | 10 to 50 | > 128 | > 128 |
| O=C(N[C@@H](C(=O)N[C@H]1Cc2cccc(C(=O)O)c2OB1O)c1ccc(P(=O)(O)O)cc1)c1ccc(C(F)(F)F)cn1 (single isomer, unassigned) [Example 193] | 32 to 64 (≈ 53.9 to 108 µM) | < 10 | 32 to 64 (≈ 53.9 to 108 µM) | > 128 |
| CS(=O)(=O)N1CCC[C@@H]1C(=O)N[C@@H](C(=O)N[C@H]1Cc2cccc(C(=O)O)c2OB1O)c1ccc(P(=O)(O)O)cc1 [Example 35, (R)-2-hydroxy-3-((R)-2-((R)-1-(methylsulfonyl)pyrrolidine-2-carboxamido)-2-(4-phosphonophenyl)acetamido)-3,4-dihydro-2H-benzo[e][1,2]oxaborinine-8-carboxylic acid] | > 128 | < 10 | > 128 | > 128 |
| CS(=O)(=O)N1CCN(C(=O)NC(C(=O)N[C@H]2Cc3cccc(C(=O)O)c3OB2O)c2ccc(P(=O)(O)O)c(F)c2)C1=O (stereo partly drawn) [Example 12, (3R)-3-(2-(3-fluoro-4-phosphonophenyl)-2-(3-(methylsulfonyl)-2-oxoimidazolidine-1-carboxamido)acetamido)-2-hydroxy-3,4-dihydro-2H-benzo[e][1,2]oxaborinine-8-carboxylic acid] | 32 to 64 (≈ 50.9 to 102 µM) | < 10 | 32 to 64 (≈ 50.9 to 102 µM) | > 128 |
| CC(=O)N1CCC[C@H]1C(=O)NC(C(=O)N[C@H]1Cc2cccc(C(=O)O)c2OB1O)c1ccc(P(=O)(O)O)cc1 (stereo partly drawn) [Example 65, (3R)-3-(2-((S)-1-acetylpyrrolidine-2-carboxamido)-2-(4-phosphonophenyl)acetamido)-2-hydroxy-3,4-dihydro-2H-benzo[e][1,2]oxaborinine-8-carboxylic acid] | > 128 | 50 to 250 | > 128 | > 128 |
| CN1CCN(C(=O)NC(C(=O)N[C@H]2Cc3cccc(C(=O)O)c3OB2O)c2ccc(P(=O)(O)O)cc2)C1=O (stereo partly drawn) [Example 41, (3R)-2-hydroxy-3-(2-(3-methyl-2-oxoimidazolidine-1-carboxamido)-2-(4-phosphonophenyl)acetamido)-3,4-dihydro-2H-benzo[e][1,2]oxaborinine-8-carboxylic acid] | 8 to 16 (≈ 14.6 to 29.3 µM) | < 10 | 32 to 64 (≈ 58.6 to 117 µM) | > 128 |
| O=C(O)c1cccc2c1OB(O)[C@@H](NC(=O)C(NC(=O)N1CCCC1=O)c1ccc(P(=O)(O)O)cc1)C2 (stereo partly drawn) [Example 57, (3R)-2-hydroxy-3-(2-(2-oxopyrrolidine-1-carboxamido)-2-(4-phosphonophenyl)acetamido)-3,4-dihydro-2H-benzo[e][1,2]oxaborinine-8-carboxylic acid] | > 128 | < 10 | > 128 | > 128 |
| O=C(O)c1cccc2c1OB(O)[C@@H](NC(=O)C(NS(=O)(=O)C1CC1)c1ccc(P(=O)(O)O)cc1)C2 (stereo partly drawn) [Example 61, (3R)-3-(2-(cyclopropanesulfonamido)-2-(4-phosphonophenyl)acetamido)-2-hydroxy-3,4-dihydro-2H-benzo[e][1,2]oxaborinine-8-carboxylic acid] | > 128 | 10 to 50 | > 128 | > 128 |
| O=C(NC(C(=O)N[C@H]1Cc2cccc(C(=O)O)c2OB1O)c1ccc(P(=O)(O)O)cc1)c1ccccn1 (stereo partly drawn) [Example 32, (3R)-2-hydroxy-3-(2-(4-phosphonophenyl)-2-(picolinamido)acetamido)-3,4-dihydro-2H-benzo[e][1,2]oxaborinine-8-carboxylic acid] | 32 to 64 (≈ 60.9 to 122 µM) | < 10 | > 128 | > 128 |
| O=C(O)c1cccc2c1OB(O)[C@@H](NC(=O)C(NC(=O)c1cnc[nH]c1=O)c1ccc(P(=O)(O)O)cc1)C2 (stereo partly drawn) [Example 176, (3R)-2-hydroxy-3-(2-(6-oxo-1,6-dihydropyrimidine-5-carboxamido)-2-(4-phosphonophenyl)acetamido)-3,4-dihydro-2H-benzo[e][1,2]oxaborinine-8-carboxylic acid] | 32 to 64 (≈ 59 to 118 µM) | < 10 | > 128 | > 128 |
| NS(=O)(=O)NC(C(=O)N[C@H]1Cc2cccc(C(=O)O)c2OB1O)c1ccc(P(=O)(O)O)cc1 (stereo partly drawn) [Example 58, (3R)-2-hydroxy-3-(2-(4-phosphonophenyl)-2-(sulfamoylamino)acetamido)-3,4-dihydro-2H-benzo[e][1,2]oxaborinine-8-carboxylic acid] | > 128 | > 250 | > 128 | > 128 |
| Cn1cccc(C(=O)N[C@@H](C(=O)N[C@H]2Cc3cccc(C(=O)O)c3OB2O)c2ccc(P(=O)(O)O)cc2)c1=O (single isomer, unassigned) [Example 182] | 8 to 16 (≈ 14.4 to 28.8 µM) | < 10 | > 128 | > 128 |
| O=C(O)c1cccc2c1OB(O)[C@@H](NC(=O)[C@H](NC(=O)c1cnc3sccn3c1=O)c1ccc(P(=O)(O)O)cc1)C2 (single isomer, unassigned) [Example 195] | 8 to 16 (≈ 13.4 to 26.7 µM) | < 10 | > 128 | > 128 |
| CCN1CCN(C(=O)N[C@@H](C(=O)N[C@H]2Cc3cccc(C(=O)O)c3OB2O)c2ccc(P(C)(=O)O)cc2)C(=O)C1=O (single isomer, unassigned) [Example 47] | 8 to 16 (≈ 13.6 to 27.3 µM) | < 10 | 8 to 16 (≈ 13.6 to 27.3 µM) | > 128 |
| O=C(O)c1cccc2c1OB(O)[C@@H](NC(=O)[C@H](NC(=O)N1CCNC1=O)c1ccc(P(=O)(O)O)cc1)C2 [Example 40, (R)-2-hydroxy-3-((R)-2-(2-oxoimidazolidine-1-carboxamido)-2-(4-phosphonophenyl)acetamido)-3,4-dihydro-2H-benzo[e][1,2]oxaborinine-8-carboxylic acid] | 8 to 16 (≈ 15 to 30.1 µM) | < 10 | 32 to 64 (≈ 60.1 to 120 µM) | > 128 |
| O=C(O)c1cccc2c1OB(O)[C@@H](NC(=O)[C@@H](NC(=O)N1CCCCC1=O)c1ccc(P(=O)(O)O)cc1)C2 [Example 36, (R)-2-hydroxy-3-((S)-2-(2-oxopiperidine-1-carboxamido)-2-(4-phosphonophenyl)acetamido)-3,4-dihydro-2H-benzo[39e][1,2]oxaborinine-8-carboxylic acid] | > 128 | 50 to 250 | > 128 | > 128 |
| O=C1CC[C@H](C(=O)NC(C(=O)N[C@H]2Cc3cccc(C(=O)O)c3OB2O)c2ccc(P(=O)(O)O)cc2)N1 (stereo partly drawn) [Example 53, (3R)-2-hydroxy-3-(2-((R)-5-oxopyrrolidine-2-carboxamido)-2-(4-phosphonophenyl)acetamido)-3,4-dihydro-2H-benzo[e][1,2]oxaborinine-8-carboxylic acid] | > 128 | 10 to 50 | > 128 | > 128 |
| CCN1CCN(C(=O)NC(C(=O)N[C@H]2Cc3cccc(C(=O)O)c3OB2O)c2ccc(P(=O)(O)O)cc2)C1=O (stereo partly drawn) [Example 42, (3R)-3-(2-(3-ethyl-2-oxoimidazolidine-1-carboxamido)-2-(4-phosphonophenyl)acetamido)-2-hydroxy-3,4-dihydro-2H-benzo[e][1,2]oxaborinine-8-carboxylic acid] | 8 to 16 (≈ 14.3 to 28.6 µM) | < 10 | 32 to 64 (≈ 57.1 to 114 µM) | > 128 |
| O=C1CC[C@@H](C(=O)NC(C(=O)N[C@H]2Cc3cccc(C(=O)O)c3OB2O)c2ccc(P(=O)(O)O)cc2)N1 (stereo partly drawn) [Example 64, (3R)-2-hydroxy-3-(2-((S)-5-oxopyrrolidine-2-carboxamido)-2-(4-phosphonophenyl)acetamido)-3,4-dihydro-2H-benzo[e][1,2]oxaborinine-8-carboxylic acid] | > 128 | 50 to 250 | > 128 | > 128 |
| O=C(O)c1cccc2c1OB(O)[C@@H](NC(=O)C(NC(=O)C(F)(F)F)c1ccc(P(=O)(O)O)cc1)C2 (stereo partly drawn) [Example 172, (3R)-2-hydroxy-3-(2-(4-phosphonophenyl)-2-(2,2,2-trifluoroacetamido)acetamido)-3,4-dihydro-2H-benzo[e][1,2]oxaborinine-8-carboxylic acid] | > 128 | 50 to 250 | > 128 | > 128 |
